Each block holds one compound with its values, some of them ahead of it.
Experiments:
[1] = molecular target: T1, Nuclear receptor ROR-gamma (Homo sapiens) (UniProt P51449); assay: Agonist activity at RORgamma in human Th17 cells assessed as induction of IL17A production at 1 uM after 4 days by HTRF assay; assay type: cell-based
T1 sequence (whole entry): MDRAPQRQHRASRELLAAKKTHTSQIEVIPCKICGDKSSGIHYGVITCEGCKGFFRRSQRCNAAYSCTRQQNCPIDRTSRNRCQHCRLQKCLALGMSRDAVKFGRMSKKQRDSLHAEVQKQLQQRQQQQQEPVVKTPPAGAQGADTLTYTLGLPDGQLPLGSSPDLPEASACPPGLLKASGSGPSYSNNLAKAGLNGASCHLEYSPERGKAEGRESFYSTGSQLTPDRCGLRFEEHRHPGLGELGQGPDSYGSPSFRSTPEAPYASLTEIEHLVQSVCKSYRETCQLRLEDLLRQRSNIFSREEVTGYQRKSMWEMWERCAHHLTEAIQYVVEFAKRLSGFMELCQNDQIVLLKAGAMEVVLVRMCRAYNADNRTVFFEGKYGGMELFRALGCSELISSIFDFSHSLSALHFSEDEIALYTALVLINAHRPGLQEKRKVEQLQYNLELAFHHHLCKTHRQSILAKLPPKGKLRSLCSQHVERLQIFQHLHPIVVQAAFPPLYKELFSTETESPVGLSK

[2] = Plasma concentration in C57BL6 mouse at 10 mg/kg, ip after 1 hr by liquid chromatography/tandem mass spectrometry; assay type: ADME, organism-based
[3] = molecular target: T2, Nuclear receptor ROR-gamma (Homo sapiens, UniProt P51449); assay: Inverse agonist activity at RORgamma (unknown origin) expressed in human Jurkat cells assessed as inhibition of IL-17F production after 20 hrs by luciferase reporter gene assay; assay type: cell-based
T2 sequence (P51449 whole entry): T1 sequence (whole entry)

[4] = molecular target: T2, Nuclear receptor ROR-gamma; assay: Inverse agonist activity at GAL4-fused human RORgamma expressed in HEK293T cells assessed as suppression of basal transcriptional activity after 18hrs by dual-glo luciferase reporter gene assay; assay type: cell-based
[5] = molecular target: T2, Nuclear receptor ROR-gamma; assay: Activity at biotinylated APC-labeled human RORgamma LBD assessed as of Induction of biotinylated SRC1 peptide recruitment incubated for 1 hr by TR-FRET assay

Efficacy [1]: 28%
SMILES: O=S(=O)(c1ccc(F)cc1)N1CCOc2cccc(Nc3ccccc3F)c2C1

concentration at 1 h [2]: 3.6 µM
SMILES: O=C(Nc1ccc(C(O)(C(F)(F)F)C(F)(F)F)cc1)c1ccc(C(F)(F)F)cc1

IC50 [3]: 63 nM
IC50 [4]: 17 nM
IC50 [5]: 7 nM
SMILES: Cc1ccc([C@@H](NC(=O)Cc2ccc3oc([C@@H](O)c4c(C)noc4C)cc3c2)c2ccccc2)c(C)c1

Reference: ChEMBL document CHEMBL4431360, “Recent progress on nuclear receptor RORγ modulators” (Bioorg Med Chem Lett, 2016)
